# Source: patent US12077508B2, “Inhibitors of the Notch transcriptional activation complex kinase (“NACK”) and methods for use of the same” (UNIVERSITY OF MIAMI, priority 2018, dated 2024)
# Legend:
# HC11/N1ICD spheres = assay: Tumor sphere formation assay in HC11/N1ICD; type: cell-based, mouse
# Excerpt: To further explore the effect of NACK inhibitors targeting Notch pathway, ectopic expression of Notch in HC11 mammary epithelial cells was constructed, as HC11 cells have little to no endogenous Notch activity. Moreover, HC11 cells are insensitive to either DAPT or Z271-0326 treatment as shown in previous colony formation assay (FIG. 5B). See Weaver et al., Cancer Research 74, 4741-4751 (2014). […] Therefore, transformation of HC11 cells by Notch now renders these cells dependent on Notch activity and sensitive to inhibition of NACK by Z271-0326.
# (§1) In order to assess the effect of hit to lead compounds on the proliferation of stem cell like population of Notch/NACK dependent cells, the primary tumor spheres were treated with NACK inhibitor and allow the cells to be propagated as secondary cultures. To obtain tumor spheres, cells were cultured in DMEM/F12 with 2% B-27 serum-free supplement (17604-044; Invitrogen), 20 ng/mL epidermal growth factor (EGF; PHG0311L; Invitrogen), and 20 ng/mL basic fibroblastic growth factor (bFGF; PHG0266; Invitrogen) for 14 days. Resulting tumor spheres were examined and counted under the microscope. Furthermore, the tumor spheres were collected for further RT-qPCR analysis to test the effect of hit to lead compounds on the stem like target genes.
# [1] = tested on: esophageal adenocarcinoma (EAC) PDX
# Experimental: Two EAC PDX models were constructed (EAC47 and EAC36) from patient tumor samples. Mice harboring established tumors (approx. 200 mm^3) were treated with either DAPT (20 mg/kg) or Z271-0326 (25 mg/kg) daily via intraperitoneal injections.
# When the tumor size reaches 200 mm^3, the corresponding groups were either treated with vehicle (DMSO) or lead compound by IP injection daily.
# HES1 promoter = assay: Chromatin immunoprecipitation (ChIP) at the HES1 promoter in OE33; type: cell-based, human; details: FIG. 8C
# Experimental: Notch/NACK-dependent cells were treated with either DAPT as a positive control, DMSO (vehicle) as a negative control, or compounds for screening for 24 hours. After treatment, cells were cross-linked and sonicated to yield chromatin fragments of approximately 500 bp, as previously described (See Weaver et al., Cancer Research 74, 4741-4751 (2014)). Lysates were immunoprecipitated with either α-Notch1 (Bethyl Laboratories, Montgomery, TX; A301-894A), α-Maml1 (Cell Signaling, 12166s), α-NACK (Bethyl Laboratories, A302-675A), or α-PoIII pSer5 (Abcam, ab5131) antibodies. DNA immunoprecipitates were cleaned using the PCR purification Kit (Qiagen). DNA were detected by Syber green qPCR using HES1 specific oligonucleotide primers (forward: 5′CGTGTCTCCTCCTCCCATT3′ (SEQ ID NO: 2); reverse: 5′GGGGGATTCCGCTGTTAT3′ (SEQ ID NO:3)).
# MAP4K5 = MAP4K5 (Homo sapiens, UniProt Q9Y4K4); assay: ADP-Glo MAP4K5 kinase assay; type: biochemical; details: FIG. 17A
# Chain of MAP4K5 (Q9Y4K4 whole entry, species assumed): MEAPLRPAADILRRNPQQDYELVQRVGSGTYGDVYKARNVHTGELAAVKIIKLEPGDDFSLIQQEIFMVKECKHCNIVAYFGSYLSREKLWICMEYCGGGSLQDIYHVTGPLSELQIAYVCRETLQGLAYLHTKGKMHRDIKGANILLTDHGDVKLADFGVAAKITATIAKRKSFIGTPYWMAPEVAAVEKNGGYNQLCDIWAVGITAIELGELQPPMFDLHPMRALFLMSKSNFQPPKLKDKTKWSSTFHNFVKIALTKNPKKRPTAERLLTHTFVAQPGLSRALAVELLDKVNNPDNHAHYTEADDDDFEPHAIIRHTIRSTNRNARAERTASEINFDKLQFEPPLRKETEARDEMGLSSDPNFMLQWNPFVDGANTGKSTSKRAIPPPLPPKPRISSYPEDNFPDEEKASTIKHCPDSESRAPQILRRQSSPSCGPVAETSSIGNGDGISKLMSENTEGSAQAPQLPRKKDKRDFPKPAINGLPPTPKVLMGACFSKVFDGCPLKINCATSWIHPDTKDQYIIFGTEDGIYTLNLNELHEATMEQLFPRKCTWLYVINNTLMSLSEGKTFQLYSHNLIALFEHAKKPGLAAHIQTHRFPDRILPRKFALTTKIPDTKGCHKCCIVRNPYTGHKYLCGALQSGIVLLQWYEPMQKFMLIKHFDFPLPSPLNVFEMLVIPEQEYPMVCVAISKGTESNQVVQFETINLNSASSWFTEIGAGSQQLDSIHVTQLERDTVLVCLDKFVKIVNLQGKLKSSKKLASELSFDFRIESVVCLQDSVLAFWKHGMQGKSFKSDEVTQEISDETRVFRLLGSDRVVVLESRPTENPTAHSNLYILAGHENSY
# Experimental: ADP-Glo kinase assay was performed using ADP-Glo™ Kinase Assay (Promega, V6930) according to the manufacture recommended protocol.
# OE33 cells = assay: Cell apoptosis assay (Annexin V/PI flow cytometry); type: cell-based, human; details: day 7 of treatment, FIG. 9A
# Experimental: To investigate how Z271-0326 inhibits cell growth in EAC cell lines, the effect of Z271-0326 treatment was evaluated on apoptosis. OE33 was treated either with the GSI DAPT or Z271-0326 every other day, and their effects on apoptosis were analyzed. On day 7 of treatment, cell apoptosis was analyzed using FITC Annexin V/Dead Cell Apoptosis Kit with FIFC annexin V and PI for flow cytometry (Invitrogen, V13242).
# OE33 spheres = assay: Tumor sphere formation assay in OE33; type: cell-based, human
# Experimental: as §1
smiles,measurement,setting,value
"CCN(CC)C(=O)c1cnn2ccc(C3CCN(S(=O)(=O)c4ccc(NC(C)=O)cc4)CC3)cc12 [Compound Z271-0326, 5-(1-((4-acetamidophenyl)sulfonyl)piperidin-4-yl)-N,N-diethylpyrazolo[1,5-a]pyridine-3-carboxamide]","HES1 and stem-cell marker gene expression (ALDH1A1, SNAIL1, TWIST1)","HC11/N1ICD spheres; HC11/N1ICD spheres, FIG. 7D",causes a decrease in HES1 gene expression as well as several other stem-cell marker genes
same,secondary sphere formation,"HC11/N1ICD spheres; HC11/N1ICD, FIG. 7C",inhibits the ability of HC11/N1ICD spheres to form secondary spheres
same,proliferation index (Ki67 staining),"[1]; Z271-0326 25 mg/kg daily i.p., vs control group, FIG. 11E",decrease in proliferation index
same,tumor growth,"[1]; Z271-0326 25 mg/kg daily intraperitoneal, vs vehicle, FIGS. 11A-11C",significantly attenuated
same,binding of N1ICD and NACK to the HES1 promoter,HES1 promoter; 24 hours,abrogated the binding of N1ICD and NACK to the HES1 promoter
same,Pol II pSer5 initiation complex formation at the HES1 promoter,HES1 promoter,decreases the RNA polymerase initiation complex (Pol II pSer5) formation at the HES1 promoter
same,MAP4K5 kinase inhibition,MAP4K5,only meaningfully inhibits LCK out of the three kinases
same,increase in the percent of cells undergoing apoptosis compared to the control,OE33 cells,threefold
same,secondary sphere formation,"OE33 spheres; OE33, FIG. 7A",decrease in the ability of cell spheres to form secondary spheres
same,Notch target genes transcription in spheres,"OE33 spheres; OE33 spheres, FIG. 7B","affected Notch target genes HES1, MYC, CCND1 and NACK transcription"
